pIC50: −log10 of the molar value. Activity calls are given as the source filed them. No cut-off for these calls is given here. Where a SMILES comes first, the peptide text is derived from it.
What was measured:
[1] = biological target: Frizzled-1 (Rattus norvegicus) (UniProt Q08463); test: Antagonist activity at Wnt3a-stimulated rat frizzled-1 expressed in African green monkey COS7 cells incubated for 24 hrs by luciferase reporter gene assay relative to control; type: cell-based; settings: filed as antagonist, concentration not given here
Sequence of Frizzled-1 (Rattus norvegicus) (Q08463 whole entry): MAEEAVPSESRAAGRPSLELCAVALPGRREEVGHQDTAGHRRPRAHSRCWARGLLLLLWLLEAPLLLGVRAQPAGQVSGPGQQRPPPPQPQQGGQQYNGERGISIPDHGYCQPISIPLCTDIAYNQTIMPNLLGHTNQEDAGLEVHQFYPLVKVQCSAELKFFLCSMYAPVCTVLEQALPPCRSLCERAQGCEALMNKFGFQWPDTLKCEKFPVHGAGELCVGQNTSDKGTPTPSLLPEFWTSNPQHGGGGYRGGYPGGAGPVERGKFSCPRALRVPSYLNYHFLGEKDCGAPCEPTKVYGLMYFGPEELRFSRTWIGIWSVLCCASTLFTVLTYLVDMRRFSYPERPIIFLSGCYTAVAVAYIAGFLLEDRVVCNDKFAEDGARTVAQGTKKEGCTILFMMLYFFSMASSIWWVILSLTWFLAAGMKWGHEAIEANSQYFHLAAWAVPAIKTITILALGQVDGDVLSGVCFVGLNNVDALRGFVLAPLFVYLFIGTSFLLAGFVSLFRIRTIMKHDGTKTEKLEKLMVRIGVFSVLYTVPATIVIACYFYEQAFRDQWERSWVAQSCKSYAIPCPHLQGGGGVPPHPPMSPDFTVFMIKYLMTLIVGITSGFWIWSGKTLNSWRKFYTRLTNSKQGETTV

[2] = biological target: Frizzled-2 (Rattus norvegicus) (UniProt Q08464); test: Antagonist activity at Wnt3a-stimulated rat frizzled-2 expressed in African green monkey COS7 cells incubated for 24 hrs by luciferase reporter gene assay relative to control; type: cell-based; settings: filed as antagonist, concentration not given here
Sequence of Frizzled-2 (Rattus norvegicus) (Q08464 29-570 limits assumed): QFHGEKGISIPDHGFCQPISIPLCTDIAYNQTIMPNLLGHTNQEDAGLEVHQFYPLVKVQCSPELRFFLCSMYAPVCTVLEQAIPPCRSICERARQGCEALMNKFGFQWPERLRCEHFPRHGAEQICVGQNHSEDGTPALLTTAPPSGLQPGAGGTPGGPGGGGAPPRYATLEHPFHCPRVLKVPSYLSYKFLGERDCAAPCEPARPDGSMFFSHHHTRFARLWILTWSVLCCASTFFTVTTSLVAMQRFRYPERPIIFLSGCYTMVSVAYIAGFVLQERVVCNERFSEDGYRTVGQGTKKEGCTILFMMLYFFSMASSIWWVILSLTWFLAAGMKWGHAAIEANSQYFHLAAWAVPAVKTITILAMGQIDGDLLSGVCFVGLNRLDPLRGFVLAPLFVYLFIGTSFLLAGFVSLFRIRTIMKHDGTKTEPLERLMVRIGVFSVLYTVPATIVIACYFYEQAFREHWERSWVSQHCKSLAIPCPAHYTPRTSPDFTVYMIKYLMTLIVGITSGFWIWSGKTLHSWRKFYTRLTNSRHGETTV

[3] = biological target: Frizzled-2 (Rattus norvegicus) (UniProt Q08464); test: Antagonist activity at Wnt3a-stimulated rat frizzled-2 expressed in human HEK293superTOP flash cells at 10 nM incubated for 24 hrs by luciferase reporter gene assay relative to control; type: cell-based; settings: HEK293, filed as antagonist
[4] = biological target: Frizzled-2 (Rattus norvegicus) (UniProt Q08464); test: Agonist activity at rat frizzled-2 expressed in African green monkey COS7 cells by luciferase reporter gene assay; type: cell-based
[5] = biological target: Frizzled-1 (Rattus norvegicus, UniProt Q08463); test: Antagonist activity at Wnt3a-stimulated rat frizzled-1 expressed in human HEK293superTOP flash cells incubated for 24 hrs by luciferase reporter gene assay; type: cell-based, HEK293
Sequence of Frizzled-1 (Q08463 whole entry): as the sequence (Q08463 whole entry) above

[6] = biological target: Frizzled-1 (Rattus norvegicus) (UniProt Q08463); test: Agonist activity at rat frizzled-1 expressed in CHO cells by luciferase reporter gene assay; type: cell-based
[7] = biological target: Frizzled-2 (Rattus norvegicus) (UniProt Q08464); test: Agonist activity at rat frizzled-2 expressed in human HEK293superTOP flash cells by luciferase reporter gene assay; type: cell-based; settings: HEK293
[8] = biological target: Frizzled-2 (Rattus norvegicus) (UniProt Q08464); test: Agonist activity at rat frizzled-2 expressed in CHO cells by luciferase reporter gene assay; type: cell-based
[9] = biological target: Frizzled-1 (Rattus norvegicus) (UniProt Q08463); test: Agonist activity at rat frizzled-1 expressed in African green monkey COS7 cells by luciferase reporter gene assay; type: cell-based
[10] = biological target: Frizzled-2 (Rattus norvegicus) (UniProt Q08464); test: Antagonist activity at Wnt3a-stimulated rat frizzled-2 expressed in CHO cells incubated for 24 hrs by luciferase reporter gene assay relative to control; type: cell-based; settings: filed as antagonist, concentration not given here
[11] = biological target: Frizzled-1 (Rattus norvegicus) (UniProt Q08463); test: Antagonist activity at Wnt3a-stimulated rat frizzled-1 expressed in CHO cells incubated for 24 hrs by luciferase reporter gene assay relative to control; type: cell-based; settings: filed as antagonist, concentration not given here
[12] = biological target: Frizzled-1 (Rattus norvegicus) (UniProt Q08463); test: Agonist activity at rat frizzled-1 expressed in human HEK293superTOP flash cells by luciferase reporter gene assay; type: cell-based; settings: HEK293
[13] = biological target: Frizzled-2 (Rattus norvegicus, UniProt Q08464); test: Antagonist activity at Wnt3a-stimulated rat frizzled-2 expressed in human HEK293superTOP flash cells incubated for 24 hrs by luciferase reporter gene assay; type: cell-based, HEK293
Sequence of Frizzled-2 (Q08464 whole entry): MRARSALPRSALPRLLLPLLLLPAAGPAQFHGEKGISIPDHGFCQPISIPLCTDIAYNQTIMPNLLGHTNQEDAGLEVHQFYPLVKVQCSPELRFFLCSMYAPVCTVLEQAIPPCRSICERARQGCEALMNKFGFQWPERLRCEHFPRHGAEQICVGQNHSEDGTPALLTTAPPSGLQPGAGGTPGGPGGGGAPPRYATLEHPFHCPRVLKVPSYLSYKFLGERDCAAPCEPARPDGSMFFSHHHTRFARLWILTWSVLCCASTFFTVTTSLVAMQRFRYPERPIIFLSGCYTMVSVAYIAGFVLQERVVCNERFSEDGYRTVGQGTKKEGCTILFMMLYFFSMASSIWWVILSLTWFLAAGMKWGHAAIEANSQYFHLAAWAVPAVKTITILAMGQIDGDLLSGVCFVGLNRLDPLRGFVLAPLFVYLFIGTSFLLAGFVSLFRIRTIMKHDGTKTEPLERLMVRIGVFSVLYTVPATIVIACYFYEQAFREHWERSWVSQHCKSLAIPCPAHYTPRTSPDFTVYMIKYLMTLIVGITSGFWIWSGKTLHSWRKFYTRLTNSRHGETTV

[14] = biological target: Frizzled-1 (Rattus norvegicus) (UniProt Q08463); test: Antagonist activity at Wnt3a-stimulated rat frizzled-1 expressed in human HEK293superTOP flash cells at 10 nM incubated for 24 hrs by luciferase reporter gene assay relative to control; type: cell-based; settings: HEK293, filed as antagonist

- inhibition [1]: 100%
- inhibition [2]: 100%
- inhibition [3]: 100%
- Activity [4]: inactive
- pIC50 [5]: 5.69
- Activity [6]: inactive
- Activity [7]: inactive
- Activity [8]: inactive
- Activity [9]: inactive
- inhibition [10]: 100%
- inhibition [11]: 100%
- Activity [12]: inactive
- pIC50 [13]: 5.68
- inhibition [14]: 100%
SMILES: CC(=O)NCC(=O)N[C@@H](CO)C(=O)N[C@@H](CS)C(=O)N[C@@H](CO)C(=O)N[C@@H](CC(C)C)C(=O)N[C@@H](CCCCN)C(=O)N[C@H](C(=O)N[C@@H](CS)C(=O)N[C@@H](Cc1c[nH]c2ccccc12)C(=O)N[C@@H](CC(C)C)C(=O)N[C@@H](CCC(N)=O)C(=O)N[C@@H](CC(C)C)C(=O)N[C@@H](C)C(=O)N[C@@H](CC(=O)O)C(N)=O)[C@@H](C)O (Ac-GSCSLKTCWLQLAD-NH2)

From ChEMBL document CHEMBL4806963, “Antagonistic peptides for frizzled-1 and frizzled-2” (2013)
